“And” between values parts separate entries of the source, which are not always exact repeats. Equal entries are not always repeated.
Test system: index fingernail and cuticle
Test: Fingernail growth of the index finger in human volunteers, daily topical treatment for four weeks
Type: in vivo
Protocol: This Example describes the use of a cream prepared with the complexes of peptone with copper (II) to improve nail growth in humans. The copper soy peptone complex (0.3% copper ion and 4% dry weight of peptone) was mixed into an application cream containing 55% (by weight) aloe vera gel, 12% squalane, 12% glycerol stearate, 5% PEG-100, 4% cetyl alcohol and 0.3% retinol. The placebo-treated control nails were treated with a similar cream that contained no copper-peptide complex. For testing experiments, the fingernail growth rates of the index finger were used as a measurement. In the first set of experiments, the copper-peptide complex was applied to the index fingernail and cuticle on the right hand while the left hand nail was untreated and used as a control. In the second set of experiments with different human volunteers, the copper-peptide cream was applied to the index fingernail and cuticle on the left hand while the right hand nail was treated with the placebo cream and used as a control. Nails were treated daily for four weeks. Nail length was measured from the end of the nail bed to the tip of the nail at its center by pushing a small plastic ruler under the nail and firmly against the nail bed. […] The effect of nail growth stimulation was approximately similar if either the right hand treated group or the left hand treated group was used. For testing experiments, the fingernail growth rates of the index finger were used as a measurement. In the experiments, the copper-peptide complex was applied to the index fingernail and cuticle on the right hand while the left hand nail was treated with the placebo cream and used as a control. Nails were treated daily for four weeks. Nail length was measured from the end of the nail bed to the tip of the nail at its center by pushing a small plastic ruler under the nail and firmly against the nail bed. […]

## GHK-Copper (II) [GHK-Copper complex]
GHK-Copper (II) cream for four weeks, one value per person, left hand placebo control
  Finger Nail Growth, Right Hand Treated: 3.1 millimeters in four weeks and 3.5 millimeters in four weeks and 3.7 millimeters in four weeks and 3.4 millimeters in four weeks and 2.9 millimeters in four weeks
Four weeks, readily apparent in all cases
  Visual inspection of treated nails versus control hand: appeared to be longer
Summary in words of the table, four weeks
  Nail growth of treated nails compared with control nails: better nail growth

Reference: patent US20030007938A1, “Methods for treating fingernails and toenails” (priority 2001, published 2003)
